Experimental data published in PMC11217349, “Development of Nurr1 agonists from amodiaquine by scaffold hopping and fragment growing” (Communications Chemistry, 2024).
“And” between values parts separate entries of the source, which are not always exact repeats. Identical values can stand only once. “Also recorded” adds a separate entry of the source.

Columns and labels:
FXR = molecular target: T1, FXR (Homo sapiens, UniProt Q96RI1); experiment: Gal4-hybrid selectivity assay FXR; type: cell-based; conditions: 3 µM; reference agonist = 100%
T1 construct: chimeric receptors composed of the Gal4-DBD and the hinge region and LBD; expressed in transfected cells; host or cells: HEK293T
Method: (§1) Nurr1 modulation was determined in a Gal4 hybrid reporter gene assay in HEK293T cells (German Collection of Microorganisms and Cell Culture GmbH, DSMZ) using pFR-Luc (Stratagene, La Jolla, CA, USA; reporter), pRL-SV40 (Promega, Madison, WI, USA; internal control) and pFA-CMV-hNurr1-LBD[14], coding for the hinge region and ligand binding domain of the canonical isoform of human Nurr1. […] After 24 h, the medium was changed to Opti-MEM without supplements, and cells were transiently transfected using Lipofectamine LTX reagent (Invitrogen, Carlsbad, CA, USA) according to the manufacturer’s protocol. Five hours after transfection, cells were incubated with the test compounds in Opti-MEM supplemented with penicillin (100 U/mL), streptomycin (100 μg/mL), and 0.1% DMSO for 16 h before luciferase activity was measured using the Dual-Glo Luciferase Assay System (Promega) according to the manufacturer’s protocol on a Tecan Spark luminometer (Tecan Deutschland GmbH, Crailsheim, Germany). Firefly luminescence was divided by Renilla luminescence and multiplied by 1000 resulting in relative light units (RLU) to normalize for transfection efficiency and cell growth. Fold activation was obtained by dividing the mean RLU of the test compound by the mean RLU of the untreated control. All samples were tested in at least three biologically independent experiments in duplicates. […]

[1] = system: HBEC-5i human brain endothelial cells; experiment: In vitro blood-brain-barrier model; type: in vitro ADME; conditions: HBEC-5i trans-well, 10 µM, 60 min
Method: Permeation of test compounds through a human brain endothelial cell barrier was evaluated using the Corning Costar 3470 Transwell Plate system (0.4 μm pore diameter with 6.5 mm inserts) and HBEC-5i cells (ATCC, CRL-3245). Filter inserts were coated one day before seeding with 50 μL 0.01% rat-tail collagen type I ([…], Sigma-Aldrich) in PBS. 60,000 HBEC-5i cells in 100 μL HBEC-5i-Medium (DMEM/F12 with 10% FCS and 40 μg/mL ECGS) were seeded after aspiration of the coating-supernatant in each insert with 600 μL HBEC-5i-Medium in each receiver well. After 24 h incubation at 37 °C with 5% CO2, the medium was exchanged to 600 μL T98G cell supernatant in receiver wells and 100 μL fresh HBEC-5i-Medium in inserts. The medium exchange was repeated every second day. On day 7 after seeding, the medium in the receiver wells was replaced by 600 μL Hank's balanced salt solution (HBSS) containing 10 mM HEPES and 0.1% DMSO and 100 μL test compound mixtures (antipyrine and test compound; each at 10 μM) in HBSS containing 10 mM HEPES and 0.1% DMSO were added to inserts. After 60 min incubation, 100 μL samples were taken from the receiver wells and diluted in 400 μL (75%/25% A/B; A=Formic acid 0.1% in water; B = Acetonitrile). Test compound concentrations in the samples were determined by LC-MS/MS on an API-3200-QTrap (Sciex) equipped with an Agilent Technologies 1100 series setup including a binary pump […]), and a Shimadzu […] autosampler under the control of Analyst 1.6 (Sciex). […] B) for 6 min going to (50%:50%) after 8 min. 5 μL of aspirated supernatant diluted in mobile phase starting conditions was loaded onto the column, separated at a flow rate of 400 μL/min, and quantified per Area of MRM (multiple reaction monitoring).

PPARγ = molecular target: T2, PPARγ (Homo sapiens, UniProt P37231); experiment: Gal4-hybrid selectivity assay PPARγ; type: cell-based; conditions: 3 µM; reference agonist = 100%
T2 construct: chimeric receptors composed of the Gal4-DBD and the hinge region and LBD; expressed in transfected cells; host or cells: HEK293T
Method: as §1

THRα = molecular target: T3, THRα (Homo sapiens, UniProt P10827); experiment: Gal4-hybrid selectivity assay THRα; type: cell-based; conditions: 3 µM; reference agonist = 100%
T3 construct: chimeric receptors composed of the Gal4-DBD and the hinge region and LBD; expressed in transfected cells; host or cells: HEK293T
Method: as §1

RARα = molecular target: T4, RARα (Homo sapiens, UniProt P10276); experiment: Gal4-hybrid selectivity assay RARα; type: cell-based; conditions: 3 µM; reference agonist = 100%
T4 construct: chimeric receptors composed of the Gal4-DBD and the hinge region and LBD; expressed in transfected cells; host or cells: HEK293T
Method: as §1

N27 rat neurons = experiment: WST-8 cytotoxicity assay, N27; type: cell-based
Method: Each sample was prepared in four biologically independent repeats. After incubation for 24 h, the medium was refreshed and 10% water-soluble tetrazolinum salt (Cell Counting Kit-8, MedChemExpress) was added to assess metabolic activity. After 4 h, absorbance was measured at 450 nm using a Tecan Spark Cyto instrument (Tecan).

Microsomal stability = type: in vitro ADME, rat; conditions: for AUC x10^5 (LC-MS peak area of 36 and its demethylated metabolites): incubation of 36 with rat liver microsomes, listed as 36-N(CH3)2
Method: To determine microsomal stability, test compounds (10 μM) were incubated in 100 mM potassium phosphate buffer at pH 7.4 (total volume of 100 µL) containing 0.5 mg/mL male rat liver microsomes (Sprague-Dawley, no. M9066, Merck KGaA, Darmstadt) and 1 mM NADPH for 0, 15, 30, or 60 min. At the end of the incubation time, microsomal activity was terminated by the addition of 500 µL MeCN and subsequent centrifugation at 1700 g for 5 min. A reaction mixture containing heat-inactivated microsomes (95 °C, 10 min) was prepared as a control for each compound. 5 µL supernatant of each sample was analyzed and the remaining concentrations of the respective test compounds at each time point were determined by LC-MS/MS on an API-3200-QTrap (Sciex) with an Agilent Technologies 1100 series setup including a binary pump (G1311A), a degasser (G1322A), and a Shimadzu SIL 20 A HT autosampler under the control of Analyst 1.6 (Sciex). A XBridge BEH C18 (3.5 µm, 150 mm×3 mm, Waters, protected with a 0.5 µm frit) stationary phase was used in combination with a gradient method starting with 0.1% formic acid in water (A) and MeCN (B) as mobile phase (A:B = 80:20) for 6 min going to A: B = 50:50 after 8 min. 5 µL of supernatant diluted in mobile phase starting conditions was loaded onto the column, separated at a flow rate of 400 µL/min, and detected and quantified per Area of MRM (multiple reaction monitoring) with the following transitions: m/z 381.797/145.000 (34); m/z 395.125/158.200 (36); m/z 409.822/131.000 (41); m/z 407.838/171.100 (42).

T4 sequence (P10276 183-417 limits assumed): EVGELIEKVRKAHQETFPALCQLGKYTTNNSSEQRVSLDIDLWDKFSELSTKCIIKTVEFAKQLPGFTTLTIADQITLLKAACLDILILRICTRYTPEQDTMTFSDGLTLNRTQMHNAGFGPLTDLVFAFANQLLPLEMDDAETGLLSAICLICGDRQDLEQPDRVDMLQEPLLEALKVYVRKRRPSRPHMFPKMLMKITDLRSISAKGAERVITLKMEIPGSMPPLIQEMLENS
T3 sequence (P10827 128-410 isoform P10827-2 limits assumed): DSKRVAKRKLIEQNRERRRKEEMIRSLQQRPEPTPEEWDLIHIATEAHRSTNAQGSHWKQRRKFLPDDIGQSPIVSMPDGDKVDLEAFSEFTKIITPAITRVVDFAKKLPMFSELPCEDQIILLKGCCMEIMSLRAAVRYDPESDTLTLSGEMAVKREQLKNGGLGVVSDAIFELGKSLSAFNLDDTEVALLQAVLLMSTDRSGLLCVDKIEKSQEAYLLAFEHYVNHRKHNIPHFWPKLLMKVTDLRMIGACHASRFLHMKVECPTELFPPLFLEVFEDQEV
T1 sequence (Q96RI1 262-486 limits assumed): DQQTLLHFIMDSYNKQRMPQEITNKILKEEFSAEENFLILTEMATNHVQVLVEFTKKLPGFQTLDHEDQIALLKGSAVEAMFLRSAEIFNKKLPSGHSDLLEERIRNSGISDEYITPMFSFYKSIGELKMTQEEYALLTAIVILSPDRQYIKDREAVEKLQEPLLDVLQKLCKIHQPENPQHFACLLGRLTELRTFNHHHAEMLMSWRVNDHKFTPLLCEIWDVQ
T2 sequence (P37231 238-503 limits assumed): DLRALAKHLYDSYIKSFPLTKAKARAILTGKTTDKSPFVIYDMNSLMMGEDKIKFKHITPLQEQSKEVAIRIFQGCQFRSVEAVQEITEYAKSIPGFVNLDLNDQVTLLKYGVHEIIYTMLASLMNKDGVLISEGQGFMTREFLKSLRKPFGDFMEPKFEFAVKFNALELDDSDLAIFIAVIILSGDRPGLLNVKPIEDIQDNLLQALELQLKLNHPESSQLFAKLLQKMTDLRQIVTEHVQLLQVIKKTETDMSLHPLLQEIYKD

% rel. act. FXR (FXR): 0.311% and 0.333% and 0.363%
% rel. act. PPARγ (PPARγ): 10.373% and 9.960% and 8.281%
% rel. act. THRα (THRα): 0.070% and 0.082% and 0.063%
% rel. act. RARα (RARα): 0.175% and 0.388% and 0.324%
half-life at 10 µM (Microsomal stability; male, Sprague-Dawley, pH 7.4, rat liver microsomes, 10 µM, LCMS): 6.3 ± 0.3 min
Structure (SMILES): Cc1nc2c(Cl)cccn2c1NC(=O)c1ccc(-c2ccc(N(C)C)cc2)o1 [Compound 36, N-(8-Chloro-2-methylimidazo[1,2-a]pyridin-3-yl)-5-(4-(dimethylamino)phenyl)furan-2-carboxamide]
logPe (BBB) [1]: -4.64 and -4.729 and -4.725 and -4.687 and -4.681 and -4.749
rel. absorbance (450 nm) (N27 rat neurons; N27, 10 µM, WST-8, vs DMSO ctrl): 94% and 99% and 90% and 91%
toxicity (WST-8) (N27 rat neurons; N27 rat neurons, 24 h): no toxic effect; also recorded: non-toxic; also recorded: inactive (10 µM)
metabolism by rat liver microsomes (route) (Microsomal stability): almost exclusively degraded by demethylation of the dimethylamino motif
AUC x10^5 (LC-MS peak area of 36 and its demethylated metabolites) (Microsomal stability; time 0 min): 7.35 x10^5 and 8.16 x10^5 and 6.56 x10^5 and 7.96 x10^5
AUC x10^5 (LC-MS peak area of 36 and its demethylated metabolites) (Microsomal stability; time 15 min): 1.47 x10^5 and 1.4 x10^5 and 1.5 x10^5 and 1.61 x10^5
